Source: US20070087974A1, “TREATMENT OR PREVENTION OF RESPIRATORY VIRAL INFECTIONS WITH IMMUNOMODULATOR COMPOUNDS” (SCICLONE PHARMACEUTICALS, INC., priority 2004, published 2007)
Read-outs that look alike come from different tables or passages of the source. Marks after values point to notes of the source that are not given here.

Test system: Influenza virus A—A/Achi/1/68 (H3N2)
Type: in vivo, outbred CFW female mice
[1] = 10.0 mg/kg per os for 5 days, […]

N[C@H](CCC(=O)N[C@@H](Cc1c[nH]c2ccccc12)C(=O)O)C(=O)O [SCV-07, γ-D-glutamyl-L-tryptophan]
# of mice survived (0.1 mg/kg per os for 5 days, […]): 0
# of mice survived (1.0 mg/kg per os for 5 days, […]): 0
Median survival (days) (1.0 mg/kg per os for 5 days, […], p = 0.025 compared to PBS-treated group by Log Rank test): 9.0* days
# of mice survived [1]: 0
Median survival [1]: 6.0 days
Median survival (mouse, in vivo): 7.0 days
